Results from patent US20210196675A1, “USE OF GINKGO BILOBA TERPENE LACTONE IN PREPARATION OF DRUGS FOR PREVENTION AND/OR TREATMENT OF TREMORS AND HEALTHCARE PRODUCTS” (CHENGDU BAIYU PHARMACEUTICAL CO., LTD., priority 2018, published 2021).
Where a name gives a salt, the structure may show the parent alone.

Key:
[1] = test system: mice with essential tremor; experiment: Rotating rod test in harmaline induced mouse model of essential tremor; type: in vivo, ICR male mice; settings: for Residence Time on Rod, Time 0: 15 minutes after modeling with harmaline, immediately before administration; for Residence Time on Rod, Time 0 / Residence Time on Rod, 30 min / Residence Time on Rod, 60 min / Residence Time on Rod, 90 min / Residence Time on Rod, Pre-harmaline: mean ± SD; for Residence Time on Rod, 30 min: 30 min after time 0/administration; for Residence Time on Rod, 30 min / Residence Time on Rod, 60 min / Residence Time on Rod, 90 min: test groups 5 mg/kg·bw intraperitoneal, propranolol 2 mg/kg·bw gavage; for Residence Time on Rod, 60 min: 60 min after time 0/administration; for Residence Time on Rod, 90 min: 90 min after time 0/administration; for Ratio of area under the curve of each group to area under the curve of the model control group: area under the rod exercise ability recovery curve, model control group = 1, normal control group 6.47; for residence time on rod compared with model control group (in words): at each time point 30 min, 60 min, 90 min; for residence time on rod compared with model control group (in words) / recovery of exercise ability in the rotating rod test compared with model control (in words): p<0.05; for Residence Time on Rod, Pre-harmaline: baseline before harmaline and before administration, 10 mice per group, max 180 seconds; for recovery of exercise ability in the rotating rod test compared with model control (in words): from area under the curve, Table 2
Source text: Effect of Ginkgo biloba terpene lactone on the Mouse Model of Essential Tremor Induced by Harmaline
The following animals are used: 100 […] (ICR) male mice of SPF grade, weighted 18-22 g, purchased from Chengdu Dashuo Experimental Animal Co., Ltd., with the animal production license number of SCXK (Sichuan) 2015-030.
100 mice were randomly assigned to ear label number and randomly divided into 10 groups according to weight stratified random number method, with 10 mice in each group.
The groups are: normal control group, model control group, propranolol hydrochloride tablet control group, Ginkgo biloba leave extract injection solution control group, ginkgolide injection group, ginkgolide A group, ginkgolide B group, bilobalide group, ginkgolide B/bilobalide group (GB:BB=1:1 w/w) and ginkgolide A/B/C group (A:B:C=1:1:1 w/w/w).
The normal control group and the model control group were administrated 0.9% sodium chloride injection by intraperitoneal injection at 0.1 mL/10 g·bw.
The hydrochloride tablet control group was administrated by gavage a solution (prepared with 0.9% sodium chloride injection) at 2 mg/kg·bw.
Ginkgolide injection group, ginkgolide A group, ginkgolide B group, bilobalide group, ginkgolide B/bilobalide group, ginkgolide A/B/C group were administrated by intraperitoneal injection at 5 mg/kg·bw.
Ginkgo biloba leave extract injection solution control group was administered by intraperitoneal injection at 5 mg/kg·bw.
On the day before the rotating rod test, all mice were given rotating rod training, so that they were familiar with the relevant movements and were able to maintain balance by climbing continuously, without falling from the rotating rod at a low rotating speed (10 circles/min).
First, a rotating rod test was performed on all mice. The result was recorded as Pre-harmaline, used as the basic value of their exercise ability.
15 minutes after modeling, the time when it is observed that the mice given harmaline show obvious tremor, reduced activity and ataxia symptoms, was took as time 0. A rotating rod test was performed on all mice at time 0. Then the mice were administered immediately.
After time 0, a rotating rod test was performed on all mice at time 30 min (30 min), time 60 min (60 min), and time 90 min (90 min).
Rotary rod test method: the mice were placed on the Rota Rod Fatigue Tester, and adapted for 20 seconds. After the mice stood steady on the rod, the tester was started and the rod was accelerated at a constant rate according to the setting. Each mouse's residence time on the rod, from the beginning of the test to the time when falling off the rod, was recorded respectively. The Rota Rod Fatigue Tester supports up to 6 channels for simultaneous testing.
The rod is set to rotate at an initial speed of 5 circles/min (5 c/min) which is increased at a constant rate to a maximum speed of 30 circles/min (30c/min) during 120 seconds, and kept at the maximum speed for 60 seconds. Therefore, each test costs 180 seconds in total, and the mice that had not yet fallen off the rod at the end of 180 seconds was recorded as having a residence time of 180 seconds on the rod.
Exercise ability change curves of the mice in each group were drawn, and the area under the curve was calculated.
The experimental data were processed by using a SPSS 19.0 statistical software. The measurement data are expressed as mean±standard deviation (±SD). Data normality test was performed using the Kolmogorov-Smirnov method.

[2] = test system: Patients with Vascular Tremor; experiment: Observation of dropping pills on patients with vascular tremor (tremor score, adverse reactions); type: in vivo, human; settings: Patients 1, 2, 3, general information before treatment
Source text: Diagnosis criteria: A. Reduced movement, muscle rigidity, forward gait, broken steps and reciprocating; B. Positive signs of the nervous system; C. A history of hypertension and cerebral arteriosclerosis.
Exclusion criteria: Tremor paralysis caused by drugs and other diseases are excluded.
The following 6 items related to tremor are scored: 1) patient complaint; 2) upper limbs tremor procedure; 3) head, jaw, tongue and lower limbs tremor degree; 4) full water test; 5) dressing, eating, buttoning and chopsticks using; 6) drawing circles and straight lines. The score for each item is classified as: normal (scored 0 piont), mild (scored 1 point), moderate (scored 2 points) and severe (scored 3 points).
Ineffective: the difference in tremor score before and after the treatment is −1 to 1
(§1) Deterioration: the difference in tremor score before and after the treatment is ≤−2.

[3] = test system: Patients with Essential Tremor; experiment: Observation of dropping pills on patients with essential tremor (tremor score, adverse reactions); type: in vivo, human; settings: Patient 2, general information before treatment
Source text: The following 6 items related to tremor are scored: 1) patient complaint; 2) upper limb tremor procedure; 3) head, jaw, tongue and lower limb tremor degree; 4) full water test; 5) dressing, eating, buttoning and chopstick using; and 6) drawing circles and straight lines. The score for each item is classified as: normal (scored 0 piont), mild (scored 1 point), moderate (scored 2 points) and severe (scored 3 points).
Ineffective: the difference in tremor score before and after the treatment is −1 to 1.
as §1

Compound	Residence Time on Rod, Time 0 [1]	Residence Time on Rod, 30 min [1]	Residence Time on Rod, 60 min [1]	Residence Time on Rod, 90 min [1]	Ratio of area under the curve of each group to area under the curve of the model control group [1]	residence time on rod compared with model control group (in words) [1]	Residence Time on Rod, Pre-harmaline [1]	recovery of exercise ability in the rotating rod test compared with model control (in words) [1]	effect in this patient (patient history) [2]	effect in this patient (patient history) [3]
C[C@@H]1C(=O)O[C@H]2C[C@@]34[C@H]5C[C@@H](C(C)(C)C)[C@]36[C@@H](OC(=O)[C@@H]6O)O[C@@]4(C(=O)O5)[C@]21O [Ginkgolide A, ginkgolide A]	42.6 ± 10.8 s	50.8 ± 10.9 s	60.3 ± 13.1 s	91.4 ± 11.5 s	2.24	significantly higher than that of the model control group	170.6 ± 21.2 s	significantly better than that of model control mice	–	–
CC1C(=O)OC2C(O)C34C5CC(C(C)(C)C)C36C(OC(=O)C6O)OC4(C(=O)O5)C12O (stereo not shown) [Ginkgolide B, ginkgolide B]	43.9 ± 12.3 s	52.6 ± 9.8 s	65.8 ± 12.8 s	100.2 ± 14.2 s	2.39	significantly higher than that of the model control group	175.7 ± 18.3 s	significantly better than that of model control mice	–	–
CC(C)(C)[C@]1(O)CC2OC(=O)CC23C(=O)OC2OC(=O)[C@H](O)C231 (stereo partly shown) [Bilobalide, bilobalide]	40.0 ± 15.6 s	48.2 ± 12.8 s	61.2 ± 15.2 s	90.6 ± 13.9 s	2.20	significantly higher than that of the model control group	171.6 ± 17.9 s	significantly better than that of model control mice	–	–
CC(C)NCC(O)COc1cccc2ccccc12 (stereo not shown) [Propranolol hydrochloride tablet, Propranolol hydrochloride, reference compound]	41.6 ± 12.8 s	60.1 ± 12.8 s	77.6 ± 10.3 s	119.3 ± 13.0 s	2.74	significantly higher than that of the model control group	176.6 ± 12.9 s	significantly better than that of model control mice	–	–
N[C@@H](Cc1ccc(O)c(O)c1)C(=O)O [Levodopa]	–	–	–	–	–	–	–	–	no effect	no effect
